Source: patent US11952349B2, “Anti-cancer nuclear hormone receptor-targeting compounds” (Nuvation Bio Inc., priority 2019, dated 2024)

How the values were obtained:
Human recombinant PARP2 = Human recombinant PARP2 (Homo sapiens, UniProt Q9UGN5); experiment: RBC HotSpot PARP2 assay (radioisotope-based filter binding); type: biochemical; conditions: Table 9; read-out: PARP2
Description: The following methods are for evaluating the in vitro biology properties of the test articles. • a. RBC HotSpot Poly(ADP-ribose) Polymerases 1 (PARP1) and Poly(ADP-ribose) Polymerases 2 (PARP2) Assays: The assay was conducted at Reaction Biology Corporation (RBC; Malvern, PA). The assay principle is radioisotope-based filter binding assay where incorporation of radioisotope-labeled NAD^+ into the substrate captured on filter is detected after washout free NAD^+. Data were analyzed using Excel and GraphPad Prism software for IC50 curve fits. Each assay was conducted with PJ34 as a positive control. PARP1 assay: Human recombinant PARP1 at a final concentration of 2.5 nM was combined with histone H4 (20 μM) and test articles at various concentrations in reaction buffer (50 mM Tris-HCL, pH 8.0, 50 mM NaCl, 10 mM MgCl2, 1 mM DTT, 1% DMSO, and 20 μg/mL activated DNA). The solution was inoculated for 20 min at room temperature and the reaction initiated by adding [adenylate-^32P]-Nicotinamide Adenine Dinucleotide, ^32P-NAD^+ at a final concentration of 10 μM. After incubation for 2 hrs at room temperature, the reaction mixture was filtered and washed with 0.75% phosphoric acid for radioactivity detection. • ii. PARP2 assay: Human recombinant PARP2 at a final concentration of 2.5 nM was combined with histone H3 (20 μM) and test articles at various concentrations in reaction buffer (50 mM Tris-HCL, pH 8.0, 50 mM NaCl, 10 mM MgCl2, 1 mM DTT, 1% DMSO, and 20 μg/mL activated DNA). The solution was inoculated for 20 min at room temperature and the reaction was initiated by adding [adenylate-^32P]-Nicotinamide Adenine Dinucleotide, ^32P-NAD^+ at a final concentration of 10 μM. After incubation for 2 hrs at room temperature, the reaction mixture was filtered and washed with 0.75% phosphoric acid for radioactivity detection. • b. AR binding assay: AR in LNCaP cytosol was used for determining the binding affinity of test articles and the reference compound—progesterone (Sigma, Cat: E2785, St. Louis, MO). IC50 s were determined using 8 concentrations/compound. Cytosol is plated at 200 μg/well (100 μL) into a 96-well conical polypropylene plate (Agilent, Cat: 5042-1385, Santa Clara, CA) and mixed with 3 μL of test compound. After adding 100 μL of ^3H-methyltrienolone (PerkinElmer, Cat: NET590250UC, San Jose, CA), the plate was sealed and shaken at 300 rpm at 4° C. for 24 hours. Post incubation, 100 μL of radioligand adsorption buffer containing 10 mM Tris-HCl, pH 7.4; 1.5 mM EDTA; 1 mM DTT; 0.25% charcoal; 0.0025% dextran was added to individual wells. Plate was shaken for 15 min at 4° C. followed by centrifugation at 3000 rpm for 30 min at 4° C. 150 μL of supernatant is transferred into scint-tube (PerkinElmer, Cat: 6000192) and mixed with 2 mL of Ultima Gold Cocktail (PerkinElmer, Cat: 6013329). Radioactivity is counted using a TriCarb 2910 TR scintillation counter (PerkinElmer). Inhibition of the radioactivity by test articles was calculated using the equation below: % Inhibition=(1−(Assay well−Average_LC)/(Average_HC−Average_LC))×100%. • IC50 values (Table 6) were calculated and graphed using the model “log(inhibitor) vs. response—Variable slope” included in GraphPad Prism 5 (San Diego, CA). The Ki values were further calculated using the equation below where [L] is the radioligand concentration (1 nM) used in this study. Kd value was 0.332 nM. Ki=IC50/(1+[L]/Kd) • c. AR transactivation: Human AR cloned into a CMV vector backbone is used for the transactivation study. HEK-293 cells are plated at 80,000 cells per well of a 24 well plate in DME+5% csFBS. Twenty four hours later, the cells are transfected using Lipofectamine (Invitrogen, Carlsbad, CA) with 0.25 μg GRE-LUC, 0.01 μg CMV-LUC (renilla luciferase) and 25 ng of the AR in OPTIMEM medium. The cells are treated 24 hrs after transfection with various ligands (10^−12 to 10^−5 M final concentrations) and luciferase assay performed 48 hours after transfection. […]

[1] = target: T1, full-length androgen receptor (Homo sapiens, UniProt P10275); experiment: AR antagonism assay (HEK293, testosterone 1 nM, Steady-glo); type: cell-based; conditions: Table 8; testosterone 1 nM; read-out: AR antagonism
T1 construct: HEK293 cells stably expressing the full-length androgen receptor; expressed in transfected cells
T1 sequence (P10275 1-920): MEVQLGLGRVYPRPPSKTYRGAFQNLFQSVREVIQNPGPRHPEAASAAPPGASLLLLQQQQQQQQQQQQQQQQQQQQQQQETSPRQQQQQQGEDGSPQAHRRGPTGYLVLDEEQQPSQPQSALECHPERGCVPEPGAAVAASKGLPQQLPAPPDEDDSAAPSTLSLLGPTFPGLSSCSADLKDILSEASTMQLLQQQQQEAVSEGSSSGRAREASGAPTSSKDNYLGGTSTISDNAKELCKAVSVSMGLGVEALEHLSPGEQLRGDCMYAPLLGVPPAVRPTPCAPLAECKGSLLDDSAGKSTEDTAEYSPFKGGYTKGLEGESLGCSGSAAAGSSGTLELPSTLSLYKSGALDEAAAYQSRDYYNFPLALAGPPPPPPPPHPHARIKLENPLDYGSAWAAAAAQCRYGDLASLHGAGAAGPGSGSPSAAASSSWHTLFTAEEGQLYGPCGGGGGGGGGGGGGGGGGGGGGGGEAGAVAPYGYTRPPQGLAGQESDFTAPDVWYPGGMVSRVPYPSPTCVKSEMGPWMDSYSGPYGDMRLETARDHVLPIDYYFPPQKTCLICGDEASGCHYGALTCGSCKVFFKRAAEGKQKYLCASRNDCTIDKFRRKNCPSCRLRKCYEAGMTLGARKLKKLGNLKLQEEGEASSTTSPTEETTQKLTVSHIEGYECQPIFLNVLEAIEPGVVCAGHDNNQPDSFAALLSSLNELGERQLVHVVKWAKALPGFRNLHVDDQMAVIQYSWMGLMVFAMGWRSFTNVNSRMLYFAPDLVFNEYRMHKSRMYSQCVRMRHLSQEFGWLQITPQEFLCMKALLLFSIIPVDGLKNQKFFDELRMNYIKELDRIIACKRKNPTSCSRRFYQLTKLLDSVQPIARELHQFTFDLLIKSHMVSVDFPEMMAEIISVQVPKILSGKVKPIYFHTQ
Description: AR antagonism assay: To evaluate AR antagonist activity, test compound was added to the assay plate (top dose 10 μM, 3 fold serial dilution, 10 point dose response). HEK293 cells stably expressing the full-length androgen receptor were seeded at a density of 20000 cells/well in the assay plate. The assay plate was then incubated at room temperature for 10 minutes and at 37° C., 5% CO2 for 20 minutes. Testosterone was added to the assay plate at 1 nM final concentration and the assay plate was incubated at 37° C., 5% CO2 for 20 h. After the incubation period, Steady-glo was added to the assay plate and mixed at room temperature for 20 minutes on an orbital shaker, before reading out on the EnVision plate reader.

Chain of Human recombinant PARP2 (Q9UGN5 whole entry): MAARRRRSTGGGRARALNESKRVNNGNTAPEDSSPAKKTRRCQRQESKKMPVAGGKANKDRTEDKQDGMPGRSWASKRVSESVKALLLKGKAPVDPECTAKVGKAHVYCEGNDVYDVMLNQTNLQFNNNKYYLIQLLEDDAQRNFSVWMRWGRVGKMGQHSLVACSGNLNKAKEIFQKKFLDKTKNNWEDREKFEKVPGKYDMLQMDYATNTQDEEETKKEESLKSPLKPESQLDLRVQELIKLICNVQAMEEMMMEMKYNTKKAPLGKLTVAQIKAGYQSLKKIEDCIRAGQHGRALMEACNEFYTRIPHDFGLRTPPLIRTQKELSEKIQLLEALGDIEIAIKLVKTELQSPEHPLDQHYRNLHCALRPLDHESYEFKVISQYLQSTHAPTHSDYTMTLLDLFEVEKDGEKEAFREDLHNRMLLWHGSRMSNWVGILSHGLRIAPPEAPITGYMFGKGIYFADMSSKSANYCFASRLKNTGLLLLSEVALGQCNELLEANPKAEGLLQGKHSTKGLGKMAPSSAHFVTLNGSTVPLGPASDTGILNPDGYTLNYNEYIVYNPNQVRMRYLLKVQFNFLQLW

In the case of `CC(=O)O[C@]1(C(C)=O)CC[C@H]2[C@@H]3CCC4=CC(=O)CCC4=C3[C@@H](c3ccc(N(C)CCCCCC(=O)N4CCN(C(=O)c5cc(Cc6n[nH]c(=O)c7ccccc67)ccc5F)CC4)cc3)C[C@@]21C` [Compound 1378, (8S,11R,13S,14S,17R)-17-acetyl-11-(4-((6-(4-(2-fluoro-5-((4-oxo-3,4-dihydrophthalazin-1-yl)methyl)benzoyl)piperazin-1-yl)-6-oxohexyl)(methyl)amino)phenyl)-13-methyl-3-oxo-2,3,6,7,8,11,12,13,14,15,16,17-dodecahydro-1H-cyclopenta[a]phenanthren-17-yl acetate], the IC50 (Human recombinant PARP2) is reported as < 1 nM and the IC50 [1] is reported as 100 to 1000 nM.
